Reference: ChEMBL document CHEMBL5532682, “Recent advances of tryptanthrin and its derivatives as potential anticancer agents” (RSC Med Chem, 2024)
pIC50: −log10 of the molar value.

Experiments:
A549 [1] = assay: Antiproliferative activity against human A549 cells measured after 48 hrs by MTT assay; type: functional, cell-based; conditions: A549, 48 h
HCT-116 [2] = assay: Antiproliferative activity against human HCT-116 cells measured after 48 hrs by MTT assay; type: functional, cell-based; conditions: HCT-116, 48 h
MDA-MB-231 [3] = assay: Antiproliferative activity against human MDA-MB-231 cells measured after 48 hrs by MTT assay; type: functional, cell-based; conditions: MDA-MB-231, 48 h
[4] = Antiproliferative activity against mouse MC3T3-E1 cells; type: toxicity, cell-based
A549 [5] = assay: Antiproliferative activity against human A549 cells; type: functional, cell-based
MCF7 = assay: Antiproliferative activity against human MCF7 cells assessed as inhibition of cell growth; type: functional, cell-based
A549 [6] = assay: Antiproliferative activity against human A549 cells assessed as inhibition of cell growth; type: functional, cell-based
HeLa = assay: Antiproliferative activity against human HeLa cells assessed as inhibition of cell growth; type: functional, cell-based
A549 [7] = assay: Antiproliferative activity against human A549 cells measured after 48 hrs; type: functional, cell-based; conditions: A549, 48 h
HCT-116 [8] = assay: Antiproliferative activity against human HCT-116 cells measured after 48 hrs; type: functional, cell-based; conditions: HCT-116, 48 h
MDA-MB-231 [9] = assay: Antiproliferative activity against human MDA-MB-231 cells measured after 48 hrs; type: functional, cell-based; conditions: MDA-MB-231, 48 h
HT-29 = assay: Antiproliferative activity against human HT-29 cells; type: functional, cell-based
PANC-1 = assay: Antiproliferative activity against human PANC-1 cells; type: functional, cell-based
MDA-MB-231 [10] = assay: Antiproliferative activity against human MDA-MB-231 cells; type: functional, cell-based
[11] = Cytotoxicity activity against human HDF cells; type: toxicity, cell-based; conditions: HDF cells (NHDF)

Compound | pIC50 (A549 [1]) | pIC50 (HCT-116 [2]) | pIC50 (MDA-MB-231 [3]) | also measured
O=C1c2c(ccc(F)c2N2CCNCC2)-n2c1nc1ccccc1c2=O | < 4.00 | < 4.00 | 4.18 | 
O=C1c2cc(Cl)ccc2-n2c1nc1cc(Cl)ccc1c2=O |  |  |  | pIC50 [4]: < 4.00; pIC50 (A549 [5]): < 4.00
O=c1c2ccccc2nc2n1-c1ccccc1/C2=N/N=c1/scc(-c2ccc(O)cc2)n1-c1ccccc1 |  |  |  | pIC50 (MCF7): 4.23; pIC50 (A549 [6]): 4.42; pIC50 (HeLa): 4.26
O=C1c2ccccc2-n2c1nc1ccc(Cl)c(Cl)c1c2=O |  |  |  | pIC50 [4]: < 4.00; pIC50 (A549 [5]): < 4.00
O=C1c2c(ccc(Cl)c2N2CCOCC2)-n2c1nc1ccccc1c2=O | < 4.00 | 4.97 | < 4.00 | 
Cc1ccc2c(c1N1CCNCC1)C(=O)c1nc3ccccc3c(=O)n1-2 | < 4.00 | 4.17 | 4.16 | 
O=C1c2c(N3CCN(CCO)CC3)cccc2-n2c1nc1ccccc1c2=O | < 4.00 | < 4.00 | 4.47 | 
O=C1c2c(N3CCN(c4ccccn4)CC3)cccc2-n2c1nc1ccccc1c2=O | < 4.00 | < 4.00 | < 4.00 | pIC50 (A549 [7]): < 4.00; pIC50 (HCT-116 [8]): < 4.00; pIC50 (MDA-MB-231 [9]): < 4.00
Cc1n[nH]c2c1[C@@]1(C(C#N)=C(N)O2)c2ccccc2-n2c1nc1ccccc1c2=O |  |  |  | pIC50 (HT-29): 4.04; pIC50 (PANC-1): 4.67; pIC50 (MDA-MB-231 [10]): 4.22; pIC50 [11]: < 4.00
O=C1c2c(ccc(Cl)c2Cl)-n2c1nc1ccc(F)c(Cl)c1c2=O |  |  |  | pIC50 [4]: 4.17; pIC50 (A549 [5]): < 4.00
CN(C)c1c(Cl)ccc2c1C(=O)c1nc3ccccc3c(=O)n1-2 | 4.73 | 4.59 | 4.83 | 
O=C1c2ccccc2-n2c1nc1ccc(F)c(Cl)c1c2=O |  |  |  | pIC50 [4]: < 4.00; pIC50 (A549 [5]): < 4.00
CCN(CC)c1cccc2c1C(=O)c1nc3ccccc3c(=O)n1-2 | < 4.00 | 5.79 | 4.32 | 
CN1CCN(c2cccc3c2C(=O)c2nc4ccccc4c(=O)n2-3)CC1 | < 4.00 | 4.34 | < 4.00 | 
Cc1ccc2c(c1N(C)C)C(=O)c1nc3ccccc3c(=O)n1-2 | 4.01 | < 4.00 | 4.06 | 
COc1ccc(-c2csc(N/N=C3/c4ccccc4N4C(=O)C5C=CC=CC5=NC34)n2)cc1 (configuration not stated) |  |  |  | pIC50 (MCF7): 4.34; pIC50 (A549 [6]): 4.28; pIC50 (HeLa): 4.18
Cc1nn(Cl)c2c1[C@@]1(C(C#N)=C(N)O2)c2ccccc2-n2c1nc1ccccc1c2=O |  |  |  | pIC50 (HT-29): 4.11; pIC50 (PANC-1): 4.31; pIC50 (MDA-MB-231 [10]): 4.32; pIC50 [11]: < 4.00
O=C1c2c(N3CCCCC3)cccc2-n2c1nc1ccccc1c2=O | < 4.00 | < 4.00 | < 4.00 | pIC50 (A549 [7]): < 4.00; pIC50 (HCT-116 [8]): < 4.00; pIC50 (MDA-MB-231 [9]): < 4.00
O=c1c2ccccc2nc2n1-c1ccccc1/C2=N/N=c1/scc(-c2ccc(Br)cc2)n1-c1ccccc1 |  |  |  | pIC50 (MCF7): 4.50; pIC50 (A549 [6]): 4.19; pIC50 (HeLa): 4.26
CN1CCN(c2c(Cl)ccc3c2C(=O)c2nc4ccccc4c(=O)n2-3)CC1 | < 4.00 | < 4.00 | < 4.00 | 
O=C1C2C=CC=CC2=NC2/C(=N\Nc3nc(-c4ccc(O)cc4)cs3)c3ccccc3N12 (configuration not stated) |  |  |  | pIC50 (MCF7): 4.50; pIC50 (A549 [6]): 4.54; pIC50 (HeLa): 5.14
Cc1ccc2c(c1N1CCOCC1)C(=O)c1nc3ccccc3c(=O)n1-2 | < 4.00 | < 4.00 | 4.23 | 
O=C1c2cc(F)ccc2-n2c1nc1cc(Cl)ccc1c2=O |  |  |  | pIC50 [4]: < 4.00; pIC50 (A549 [5]): < 4.00
O=C1c2c(ccc(Cl)c2N2CCN(CCO)CC2)-n2c1nc1ccccc1c2=O | 4.64 | < 4.00 | 4.48 | 
O=C1c2c(ccc(F)c2N2CCCCC2)-n2c1nc1ccccc1c2=O | < 4.00 | 4.19 | < 4.00 | pIC50 (A549 [7]): < 4.00; pIC50 (HCT-116 [8]): 4.19; pIC50 (MDA-MB-231 [9]): < 4.00
O=C1c2cc(Cl)c(N3CCCCC3)cc2-n2c1nc1ccccc1c2=O |  |  |  | pIC50 (A549 [7]): < 4.00; pIC50 (HCT-116 [8]): < 4.00; pIC50 (MDA-MB-231 [9]): < 4.00
CC[C@@]1(O)C(=O)OCc2c1cc1n(c2=O)Cc2cc3ccccc3nc2-1 [CAMPTOTHECIN] |  |  |  | pIC50 (A549 [5]): 6.41
O=C1c2c(N3CCOCC3)cccc2-n2c1nc1ccccc1c2=O | 4.86 | 4.05 | 4.25 | pIC50 (A549 [7]): < 4.00; pIC50 (HCT-116 [8]): 5.79; pIC50 (MDA-MB-231 [9]): 4.32
O=C1c2c(ccc(Cl)c2N2CCNCC2)-n2c1nc1ccccc1c2=O | 4.46 | < 4.00 | 4.50 | 
O=C1c2c(ccc(Cl)c2N2CCCCC2)-n2c1nc1ccccc1c2=O | < 4.00 | < 4.00 | < 4.00 | 
